Read-outs that look alike come from different tables or passages of the source. Marks after values point to notes of the source that are not given here. One block for each compound: values may come before it.
Columns and labels:
Type in all cases: cell-based
[1] = tested on: MDA-MB-231 breast cancer cells; test: MTT cell viability assay, MDA-MB-231
Description: (§1) Cell viability of MDA-MB-231 breast cancer cells was evaluated by using the MTT assay in triple replicates in one experiment and repeated for three times (FIG. 3). […] The cells were incubated at 37° C. for a period of 24 hours. Escalating concentrations of IL-6/gp130 inhibitors (e.g., compounds of Formula (A), (B), (C), (D), (E), or (F) including LLM-418, bazedoxifene, LS-28-3, and COMP-D (LS-101-D)) were added in triplicate to the plates in the presence of 10% FBS. After incubation for 72 hours (unless otherwise noted), a stock solution of MTT (0.5 mg/ml) was then added to each well containing the treated cells, followed by incubation at 37° C. for 3 h. After removal of medium, the MTT dye was dissolved with spectrophotometric grade DMSO and the absorbance was read at 570 nm. The IC50 value is determined by interpolation based on the absorbance value halfway between positive and negative controls.

[2] = tested on: SUM159 breast cancer cells; test: MTT cell viability assay, SUM159; conditions: for IC50 / IC50 Values in Breast Cancer Cell Lines, SUM159 / SUM159 IC50: 72 hours, Inactive = no measurable activity at 20 μM
Description: Cell viability of MDA-MB-231 breast cancer cells was evaluated by using the MTT assay in triple replicates in one experiment and repeated for three times (FIG. 3). MDA-MB-231 SUM159, SUM159 […], MDA-MB-231 breast cancer cells or SUM149 or HCC1937 BRCA mutant breast cancer cells were seeded in 96-well plates at a density of 3,000 cells per well. The cells were incubated at 37° C. for a period of 24 hours. Escalating concentrations of IL-6/gp130 inhibitors (e.g., compounds of Formula (A), (B), (C), (D), (E), or (F) including LLM-418, bazedoxifene, LS-28-3, and COMP-D (LS-101-D)) were added in triplicate to the plates in the presence of 10% FBS. After incubation for 72 hours (unless otherwise noted), a stock solution of MTT (0.5 mg/ml) was then added to each well containing the treated cells, followed by incubation at 37° C. for 3 h. After removal of medium, the MTT dye was dissolved with spectrophotometric grade DMSO and the absorbance was read at 570 nm. The IC50 value is determined by interpolation based on the absorbance value halfway between positive and negative controls.

[3] = tested on: SUM159 gp130ko breast cancer cells; test: MTT cell viability assay, SUM159 gp130ko; conditions: 72 hours, read-out: IC50 Values in Breast Cancer Cell Lines, SUM159 gp130ko
Description: as §1

[4] = tested on: MDA-MB-231 Bone Metastatic breast cancer cells; test: MTT cell viability assay, MDA-MB-231 Bone Metastatic; conditions: 72 hours
Description: as §1

IL-6 induced p-STAT3 = test: Selectivity study, western blot, T47D cells, IL-6 stimulation; conditions: T47D breast cancer cells, compound 2 hours, then cytokine 30 minutes
Description: (§2) Cells were harvested and lysed in cold radioimmunoprecipitation assay (RIPA) lysis buffer containing proteasome inhibitor cocktail and phosphatase inhibitor cocktail. The protein concentrations were determined using the BCA Protein Assay kit. After adding the loading buffer and boiling at 95° C. for 10 minutes, equivalent amounts of proteins were loaded on and separated by SDS-PAGE, and then were transferred to PVDF membranes. Membranes were probed with primary antibodies (1:1000) against gp130 and GAPDH. Membranes were analyzed using Enhanced Chemiluminescence Plus reagents and either scanned with the Storm Scanner (Amersham Pharmacia Biotech, Inc., Piscataway, NJ) or imaged with ChemiDoc MP imaging system (Bio-Rad, Hercules, CA).
(§3) Inhibition of downstream STAT3 phosphorylation was performed. T47D breast cancer cells, which lack endogenous IL-6, were treated with LLM418-MCBu for 2 hours. Then, cytokine was administered for 30 minutes (IL-6, INF, LIF, or OSM). Western blot conducted afterwards to assess dose-dependent inhibition of IL-6 signaling (or lack thereof) (FIG. 5).

induced p-STAT1 = test: Selectivity study, western blot, T47D cells, IFN stimulation; conditions: T47D breast cancer cells, compound, then cytokine
Description: as §2, §3

[5] = Homo sapiens, MDA-MB-231, Table 1 batch studies, MTT, 72 hours, Inactive = no measurable activity at 20 μM, read-out: IC50 Values in Breast Cancer Cell Lines, MDA-MB-231
[6] = Homo sapiens, MDA-MB-231, Table 3 batch studies (independent from Table 1), MTT, 72 hours, Inactive = no measurable activity at 20 μM, read-out: MDA-MB-231 IC50
[7] = SUM159, Table 1 batch studies, read-out: IC50 Values in Breast Cancer Cell Lines, SUM159
[8] = SUM159, Table 3 batch studies (independent from Table 1), read-out: SUM159 IC50
[9] = Homo sapiens, MDA-MB-231, Table 3 batch studies (independent from Table 1), read-out: MDA-MB-231 Bone Metastatic IC50
[10] = Table 1 batch studies, MTT, 72 hours, Inactive = no measurable activity at 20 μM
[11] = Table 3 batch studies (independent from Table 1), MTT, 72 hours, Inactive = no measurable activity at 20 μM
[12] = Table 3 batch studies (independent from Table 1)
[13] = Table 1 batch studies, MTT, 72 hours, Inactive = no measurable activity at 20 μM, read-out: IC50 Values in Breast Cancer Cell Lines, MDA-MB-231
[14] = Table 3 batch studies (independent from Table 1), MTT, 72 hours, Inactive = no measurable activity at 20 μM, read-out: MDA-MB-231 IC50
[15] = Table 1 batch studies, read-out: IC50 Values in Breast Cancer Cell Lines, SUM159
[16] = Table 3 batch studies (independent from Table 1), read-out: SUM159 IC50

IC50 [1, 5]: 47.8 µM | IC50 [1, 6]: 47.8 µM | IC50 [2, 7]: 24.7 µM | IC50 [2, 8]: 24.7 µM
SMILES: O=C(Nc1cc(F)ccc1N1CCCC1)c1ccc(OCCCN2CCCCC2)cc1 [LLM4-S2, N-(5-fluoro-2-(pyrrolidin-1-yl)phenyl)-4-(3-(piperidin-1-yl)propoxy)benzamide]

IC50 [1, 5]: 53.1 µM | IC50 [1, 6]: 53.1 µM | IC50 [2, 7]: 58.7 µM | IC50 [2, 8]: 58.7 µM
SMILES: O=C(Nc1ccccc1-n1cccc1)c1ccc(OCCCN2CCCCC2)cc1 [LLM4-S1, N-(2-(1H-pyrrol-1-yl)phenyl)-4-(3-(piperidin-1-yl)propoxy)benzamide]

IC50 [1, 5]: 25.1 µM | IC50 [1, 6]: 28.1 µM | IC50 [2, 7]: 16.3 µM | IC50 [2, 8]: 16.3 µM | IC50 ([3]; SUM159, Table 1 batch studies): 22.5 µM | IC50 ([4]; Homo sapiens, MDA-MB-231, Table 1 batch studies, read-out: IC50 Values in Breast Cancer Cell Lines, MDA-MB-231 Bone Metastatic): 23.7 µM | IC50 [4, 9]: 23.7 µM
SMILES: O=C(Nc1ccccc1-c1ccn[nH]1)c1ccc(OCCN2CCCCC2)cc1 [LLM418, N-(2-(1H-pyrazol-5-yl)phenyl)-4-(2-(piperidin-1-yl)ethoxy)benzamide]

IC50 [1, 5]: 169 µM | IC50 [1, 6]: 169 µM | IC50 [2, 7]: 16 µM | IC50 [2, 8]: 16 µM
SMILES: O=C(Nc1ccccc1-c1ccn(CC(F)(F)F)n1)c1ccc(OCCN2CCCCC2)cc1 [LLM418-MCF3, 4-(2-(piperidin-1-yl)ethoxy)-N-(2-(1-(2,2,2-trifluoroethyl)-1H-pyrazol-3-yl)phenyl)benzamide]

IC50 [1, 13]: 18.4 µM | IC50 [1, 14]: 18.4 µM | IC50 [2, 15]: 26.1 µM | IC50 [2, 16]: 26.1 µM | IC50 ([3]; Table 1 batch studies): 26.7 µM | IC50 ([4]; Table 3 batch studies (independent from Table 1), read-out: MDA-MB-231 Bone Metastatic IC50): 26.7 µM
SMILES: CC1(C)O[C@@H]2[C@@H](CO[C@@]3(Cn4cc(-c5ccc(NC(=O)c6ccc(OCCN7CCCCC7)cc6)cc5)nn4)OC(C)(C)O[C@@H]23)O1 [LS-TF-4P]

The remaining lines, values behind:

SMILES: CC(C)n1ccc(-c2ccccc2NC(=O)c2ccc(OCCN3CCCCC3)cc2)n1 [LLM418-iPR, N-(2-(1-isopropyl-1H-pyrazol-3-yl)phenyl)-4-(2-(piperidin-1-yl)ethoxy)benzamide]
IC50 [1, 5]: 19 µM | IC50 [1, 6]: 19 µM | IC50 [2, 7]: 9.1 µM | IC50 [2, 8]: 9.1 µM | IC50 ([3]; SUM159, Table 1 batch studies): 12.1 µM | IC50 [4, 9]: 29.7 µM | Inhibition of IL-6 induced p-STAT3 (IL-6 induced p-STAT3): inhibit both IL-6 induced p-STAT3 and IFN-7 induced p-STAT1 | Inhibition of IFN-7 induced p-STAT1 (induced p-STAT1): inhibit both IL-6 induced p-STAT3 and IFN-7 induced p-STAT1

SMILES: c1ccc2c(c1)nc(-c1ccc(OCCN3CCCCC3)cc1)n1nccc21 [LLM418-SC, 5-(4-(2-(piperidin-1-yl)ethoxy)phenyl)pyrazolo[1,5-c]quinazoline]
IC50 ([1]; Homo sapiens, MDA-MB-231, Table 1 batch studies, 48-hour MTT, read-out: IC50, MDA-MB-231, 48-hour MTT): 11.3 µM | IC50 ([1]; Homo sapiens, MDA-MB-231, Table 3 batch studies, 48-hour MTT, read-out: MDA-MB-231 IC50, 48-hour MTT): 11.3 µM

SMILES: O=C(Nc1ccccc1N1CCCC1)c1ccc(OCCCN2CCCCC2)cc1 [LLM4-S3, 4-(3-(piperidin-1-yl)propoxy)-N-(2-(pyrrolidin-1-yl)phenyl)benzamide]
IC50 [1, 5]: 49.1 µM | IC50 [1, 6]: 49.1 µM | IC50 [2, 7]: 46.1 µM | IC50 [2, 8]: 46.1 µM

SMILES: O=C(Nc1ccc(-c2cn([C@@H]3OC[C@@H](O)[C@H](O)[C@H]3O)nn2)cc1)c1ccc(OCCN2CCCCC2)cc1 [LS-TX-4, 4-(2-(piperidin-1-yl)ethoxy)-N-(4-(1-((2R,3R,4S,5R)-3,4,5-trihydroxytetrahydro-2H-pyran-2-yl)-1H-1,2,3-triazol-4-yl)phenyl)benzamide·acetic acid]
IC50 Values in Breast Cancer Cell Lines, MDA-MB-231 [1, 10]: Inactive | MDA-MB-231 IC50 [1, 11]: Inactive | IC50 Values in Breast Cancer Cell Lines, SUM159 ([2]; Table 1 batch studies): Inactive | SUM159 IC50 [2, 12]: Inactive

SMILES: Cc1c(-c2ccc(O)cc2)n(Cc2ccc(OCCN3CCCCCC3)cc2)c2ccc(O)cc12 [Bazedoxifene, bazedoxifene, reference compound]
IC50 [1, 6]: 12 µM | IC50 [2, 8]: 7.1 µM

SMILES: O=C(Nc1cccc(-c2cn([C@@H]3OC[C@@H](O)[C@H](O)[C@H]3O)nn2)c1)c1ccc(OCCN2CCCCC2)cc1 [LS-TX-3, 4-(2-(piperidin-1-yl)ethoxy)-N-(3-(1-((2R,3R,4S,5R)-3,4,5-trihydroxytetrahydro-2H-pyran-2-yl)-1H-1,2,3-triazol-4-yl)phenyl)benzamide·acetic acid]
IC50 Values in Breast Cancer Cell Lines, MDA-MB-231 [1, 10]: Inactive | MDA-MB-231 IC50 [1, 11]: Inactive | IC50 Values in Breast Cancer Cell Lines, SUM159 ([2]; Table 1 batch studies): Inactive | SUM159 IC50 [2, 12]: Inactive

SMILES: CC(C)[C@H]1COC(=O)N1c1ccc(C(=O)Nc2ccccc2-c2cc[nH]n2)cc1 [LS-28-2, (S)—N-(2-(1H-pyrazol-3-yl)phenyl)-4-(4-isopropyl-2-oxooxazolidin-3-yl)benzamide]
Percent cells remaining after treatment with 20 μM compound, MDA-MB-231 ([1]; Table 1 batch studies, MTT): 21%* | Percent cells remaining after treatment with 20 μM compound, MDA-MB-231 ([1]; Table 3 batch studies, MTT): 21%* | Percent cells remaining after treatment with 20 μM compound, SUM159 ([2]; Table 1 batch studies): 33%* | Percent cells remaining after treatment with 20 μM compound, SUM159 ([2]; Table 3 batch studies): 33%*

SMILES: O=C(Nc1cc(F)ccc1-n1cccc1)c1ccc(OCCCN2CCCCC2)cc1 [LLM4]
IC50 [1, 13]: 47.7 µM | IC50 [1, 14]: 47.7 µM | IC50 [2, 15]: 31.1 µM | IC50 [2, 16]: 31.1 µM

SMILES: O=C(Nc1ccccc1-c1cn([C@@H]2OC[C@@H](O)[C@H](O)[C@H]2O)nn1)c1ccc(OCCN2CCCCC2)cc1 [LS-TX-2, 4-(2-(piperidin-1-yl)ethoxy)-N-(2-(1-((2R,3R,4S,5R)-3,4,5-trihydroxytetrahydro-2H-pyran-2-yl)-1H-1,2,3-triazol-4-yl)phenyl)benzamide·acetic acid]
IC50 Values in Breast Cancer Cell Lines, MDA-MB-231 [1, 10]: Inactive | MDA-MB-231 IC50 [1, 11]: Inactive | IC50 Values in Breast Cancer Cell Lines, SUM159 ([2]; Table 1 batch studies): Inactive | SUM159 IC50 [2, 12]: Inactive

SMILES: CC1(C)O[C@@H]2[C@@H](CO[C@@]3(Cn4cc(-c5cccc(NC(=O)c6ccc(OCCN7CCCCC7)cc6)c5)nn4)OC(C)(C)O[C@@H]23)O1 [LS-TF-3P]
IC50 [1, 14]: 67 µM | IC50 [2, 16]: 16 µM

SMILES: CCCn1ccc(-c2ccccc2NC(=O)c2ccc(OCCN3CCCCC3)cc2)n1 [LLM418-Pr, N-(2-(1-propyl-1H-pyrazol-3-yl)phenyl)-4-(2-(piperidin-1-yl)ethoxy)benzamide]
IC50 [1, 5]: 5.8 µM | IC50 [1, 6]: 5.8 µM
